We go through six compounds from patent US12441718B2, “Selective angiotensin II compounds” (VICORE PHARMA AB, priority 2021, dated 2025).

The nature of data set [1]: Metabolic stability in pooled human liver microsomes. The class given is in vitro ADME. To be noted: human, pooled human liver microsomes, pooled human liver microsomes 0.5 mg/mL, 1 μM test compound, 37° C., * rows = mean of two runs. In outline:
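Pooled human liver microsomes (0.5 mg/mL in PBS) preincubated ±1 mM NADPH at 37° C; test compound added at 10 min to 1 μM final. Samples at 0, 5, 15 and 60 min quenched in acetonitrile, parent quantified by LC-MS/MS against a standard curve (terfenadine internal standard). Initial metabolic rate calculated with and without NADPH.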
Background: Liver microsomes are vesicles of endoplasmic reticulum, rich in cytochrome P450 enzymes.

Data set [2] addresses T1, human recombinant AT2 receptor (Homo sapiens, UniProt P50052).
T1 construct: purchased Eurofins ITEM26 (protocol number)
T1 sequence (P50052 1-363): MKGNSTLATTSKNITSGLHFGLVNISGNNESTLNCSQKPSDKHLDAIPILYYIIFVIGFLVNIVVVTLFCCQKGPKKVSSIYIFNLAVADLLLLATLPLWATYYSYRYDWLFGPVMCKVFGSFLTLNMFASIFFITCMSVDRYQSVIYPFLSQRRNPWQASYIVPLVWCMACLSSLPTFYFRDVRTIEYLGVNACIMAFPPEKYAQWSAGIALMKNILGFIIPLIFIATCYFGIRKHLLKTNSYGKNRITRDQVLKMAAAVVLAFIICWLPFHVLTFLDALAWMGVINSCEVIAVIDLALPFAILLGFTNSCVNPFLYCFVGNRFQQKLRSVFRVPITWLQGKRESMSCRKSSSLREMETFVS
The data set is described as follows: Binding to AT2 receptor, radiometric scintillation assay (Eurofins ITEM26). The following applies: ligand 125I CGP 42112A, * rows = mean of runs; for Ki: seven-point dose-response curve; for IC50: test compounds at 1, 10, 100 and 1000 nM, read-out: AT2 GraFit IC50.

The target of data set [3] is T2, human recombinant AT1 receptor (Homo sapiens, UniProt P30556).
T2 construct: purchased Eurofins ITEM24 (protocol number)
T2 sequence (P30556 1-359): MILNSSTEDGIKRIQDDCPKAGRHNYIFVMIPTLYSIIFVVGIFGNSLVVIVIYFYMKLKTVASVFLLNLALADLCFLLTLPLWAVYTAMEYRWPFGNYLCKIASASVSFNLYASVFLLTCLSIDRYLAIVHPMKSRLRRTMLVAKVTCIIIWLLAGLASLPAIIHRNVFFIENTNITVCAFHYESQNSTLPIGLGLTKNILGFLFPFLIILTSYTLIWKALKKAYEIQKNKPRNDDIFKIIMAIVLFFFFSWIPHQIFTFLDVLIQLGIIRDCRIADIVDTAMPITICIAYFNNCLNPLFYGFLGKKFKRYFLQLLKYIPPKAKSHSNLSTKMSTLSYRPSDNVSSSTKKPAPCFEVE
Nature of the data set: Binding to AT1 receptor, radiometric scintillation assay (Eurofins ITEM24). To be noted: test compounds at 1 and 10 μM, ligand 125I(sar1,Ile8)-AT-II; * rows = mean of runs.

For another data set, the target named is T3, CYP1A2 (Homo sapiens, UniProt P05177).
T3 construct: isoform-specific substrates incubated with human liver microsomes; tissue Eurofins ITEMG232 (protocol number); host or cells: human liver microsomes
The data set is described as follows: in vitro. Type of data set: in vitro ADME. The following applies: human, microsomes, human liver microsomes, substrate phenacetin, read-out: CYP1A2 Inh %.

Another data set concerns the target T4, CYP2B6 (Homo sapiens, UniProt P20813).
T4 construct: isoform-specific substrates incubated with human liver microsomes; tissue Eurofins ITEMG232 (protocol number); host or cells: human liver microsomes
T4 sequence (P20813 1-491): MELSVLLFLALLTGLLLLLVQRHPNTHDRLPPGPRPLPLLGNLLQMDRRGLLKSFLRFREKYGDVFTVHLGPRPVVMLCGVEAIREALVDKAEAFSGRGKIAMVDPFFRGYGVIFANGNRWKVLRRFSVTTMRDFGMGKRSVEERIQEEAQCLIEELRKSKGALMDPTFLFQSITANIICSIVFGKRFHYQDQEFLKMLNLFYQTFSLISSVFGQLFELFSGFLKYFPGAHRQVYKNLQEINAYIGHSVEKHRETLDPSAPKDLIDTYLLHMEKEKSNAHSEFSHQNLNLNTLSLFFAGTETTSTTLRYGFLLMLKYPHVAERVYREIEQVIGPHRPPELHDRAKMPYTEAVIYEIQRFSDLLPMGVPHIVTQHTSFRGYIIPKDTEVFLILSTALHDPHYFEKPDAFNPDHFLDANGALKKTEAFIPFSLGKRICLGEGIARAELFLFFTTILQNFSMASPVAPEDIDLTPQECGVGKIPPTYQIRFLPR
The data set is described as follows: CYP inhibition in human liver microsomes (Eurofins ITEMG232). Type of data set: in vitro ADME. The following applies: probe bupropion, substrate bupropion, read-out: CYP2B6 Inh %.

In a further data set the target is T5, CYP2C19 (Homo sapiens, UniProt P33261).
T5 construct: isoform-specific substrates incubated with human liver microsomes; tissue Eurofins ITEMG232 (protocol number); host or cells: human liver microsomes
The description is as above. Type of data set: in vitro ADME. The following applies: human, probe omeprazole, substrate omeprazole, read-out: CYP2C19 Inh %.

A further data set addresses T6, CYP2C8 (Homo sapiens, UniProt P10632).
T6 construct: isoform-specific substrates incubated with human liver microsomes; tissue Eurofins ITEMG232 (protocol number); host or cells: human liver microsomes
T6 sequence (P10632 1-490): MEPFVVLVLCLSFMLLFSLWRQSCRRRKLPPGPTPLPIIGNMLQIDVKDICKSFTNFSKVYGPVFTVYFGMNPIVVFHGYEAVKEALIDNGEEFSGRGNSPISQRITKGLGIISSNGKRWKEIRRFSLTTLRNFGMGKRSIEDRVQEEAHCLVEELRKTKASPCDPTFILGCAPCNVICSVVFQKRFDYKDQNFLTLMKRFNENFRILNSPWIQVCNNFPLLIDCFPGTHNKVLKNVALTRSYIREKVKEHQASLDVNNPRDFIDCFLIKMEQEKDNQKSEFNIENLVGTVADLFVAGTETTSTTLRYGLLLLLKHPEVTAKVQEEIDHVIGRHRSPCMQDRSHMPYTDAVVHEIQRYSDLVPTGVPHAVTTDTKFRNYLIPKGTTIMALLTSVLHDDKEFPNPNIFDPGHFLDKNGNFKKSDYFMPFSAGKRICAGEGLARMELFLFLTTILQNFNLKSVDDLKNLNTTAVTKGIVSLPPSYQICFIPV
Described as above. To be noted: human, probe paclitaxel and amodiaquine, substrate paclitaxel and amodiaquine, read-out: CYP2C8 Inh %. The class given is in vitro ADME.

Another data set has as its target T7, CYP2D6 (Homo sapiens, UniProt P10635).
T7 construct: isoform-specific substrates incubated with human liver microsomes; tissue Eurofins ITEMG232 (protocol number); host or cells: human liver microsomes
Described as above. Type of data set: in vitro ADME. The following applies: probe dextromethorphan, substrate dextromethorphan, read-out: CYP2D6 Inh %.

For the next data set, the system named is CYP3A4&5. Nature of the data set: in vitro. To be noted: human, human liver microsomes, probe testosterone.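 Also: Read-out is the metabolite generated from the probe substrate, quantified as HPLC-MS/MS peak area once incubation ends.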
In the next data set the target is CYP2C9 (Homo sapiens, UniProt P11712). Nature of the data set: CYP inhibition in human liver microsomes (Eurofins ITEMG232). Type of data set: in vitro ADME. Also noted: isoform-specific substrates incubated with human liver microsomes; tissue Eurofins ITEMG232 (protocol number); host or cells: human liver microsomes. To be noted: human, probe diclofenac, substrate diclofenac, read-out: CYP2C9 Inh %.

Another data set addresses CYP3A4 (Homo sapiens, UniProt P08684). The data set is described as follows: CYP inhibition in human liver microsomes (Eurofins ITEMG232), midazolam substrate. The class given is in vitro ADME. On the set-up: isoform-specific substrates incubated with human liver microsomes; tissue Eurofins ITEMG232 (protocol number); host or cells: human liver microsomes. To be noted: human, probe midazolam, read-out: CYP3A4 midazolam Inh %.

[4] abbreviates: with 1 mM NADPH, read-out: T1/2, + NaDPH.
Where [5] appears, read: without NADPH, read-out: T1/2, no NaDPH.

As a reminder, the Ki is the dissociation constant of the complex between target and ligand, obtained from inhibition or displacement. By IC50 is commonly meant the point on the concentration scale where inhibition reaches its midpoint.

Each structure is given as a SMILES string. Like-named read-outs stand apart in the source and are kept apart here.

Sequence of CYP3A4 (P08684 whole entry, canonical isoform): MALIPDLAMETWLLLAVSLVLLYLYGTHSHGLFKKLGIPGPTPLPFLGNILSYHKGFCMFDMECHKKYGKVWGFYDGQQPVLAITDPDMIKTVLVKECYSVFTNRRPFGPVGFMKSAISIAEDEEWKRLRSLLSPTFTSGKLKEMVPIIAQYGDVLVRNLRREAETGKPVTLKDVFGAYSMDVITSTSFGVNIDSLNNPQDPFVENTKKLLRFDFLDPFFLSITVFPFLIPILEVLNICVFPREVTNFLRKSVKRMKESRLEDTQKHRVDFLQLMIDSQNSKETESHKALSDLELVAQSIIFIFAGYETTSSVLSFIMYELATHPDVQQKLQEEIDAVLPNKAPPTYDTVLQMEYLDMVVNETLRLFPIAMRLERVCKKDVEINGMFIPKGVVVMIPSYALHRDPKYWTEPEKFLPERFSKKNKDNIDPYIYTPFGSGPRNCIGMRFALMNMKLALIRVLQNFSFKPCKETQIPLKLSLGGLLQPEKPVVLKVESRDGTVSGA
T3 sequence (P05177 whole entry, canonical isoform): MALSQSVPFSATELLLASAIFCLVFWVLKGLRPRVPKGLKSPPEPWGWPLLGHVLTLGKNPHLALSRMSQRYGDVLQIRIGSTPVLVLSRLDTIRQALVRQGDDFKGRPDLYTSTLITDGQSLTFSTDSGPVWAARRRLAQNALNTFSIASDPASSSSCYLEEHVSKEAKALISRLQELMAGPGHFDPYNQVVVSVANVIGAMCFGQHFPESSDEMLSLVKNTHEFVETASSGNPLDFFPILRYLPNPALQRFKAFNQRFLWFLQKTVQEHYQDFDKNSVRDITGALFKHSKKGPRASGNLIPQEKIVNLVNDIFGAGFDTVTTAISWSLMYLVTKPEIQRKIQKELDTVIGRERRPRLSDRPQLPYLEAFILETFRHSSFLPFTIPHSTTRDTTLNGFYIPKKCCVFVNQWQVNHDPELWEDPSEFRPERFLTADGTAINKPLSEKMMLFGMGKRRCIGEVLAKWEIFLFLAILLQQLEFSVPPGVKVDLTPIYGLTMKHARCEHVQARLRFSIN
T5 sequence (P33261 whole entry, canonical isoform): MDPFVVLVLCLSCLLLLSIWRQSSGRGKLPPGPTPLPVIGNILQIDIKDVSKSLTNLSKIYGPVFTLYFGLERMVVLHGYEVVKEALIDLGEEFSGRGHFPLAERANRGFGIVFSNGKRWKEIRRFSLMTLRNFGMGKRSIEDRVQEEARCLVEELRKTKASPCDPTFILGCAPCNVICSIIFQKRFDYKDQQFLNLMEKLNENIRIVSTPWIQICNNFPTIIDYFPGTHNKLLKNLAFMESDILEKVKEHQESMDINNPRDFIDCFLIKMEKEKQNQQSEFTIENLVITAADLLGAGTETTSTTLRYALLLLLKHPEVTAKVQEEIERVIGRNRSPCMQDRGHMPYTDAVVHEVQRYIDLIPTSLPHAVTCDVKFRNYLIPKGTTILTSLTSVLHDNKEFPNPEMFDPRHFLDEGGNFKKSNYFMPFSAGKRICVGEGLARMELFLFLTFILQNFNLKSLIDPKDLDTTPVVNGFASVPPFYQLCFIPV
T7 sequence (P10635 whole entry, canonical isoform): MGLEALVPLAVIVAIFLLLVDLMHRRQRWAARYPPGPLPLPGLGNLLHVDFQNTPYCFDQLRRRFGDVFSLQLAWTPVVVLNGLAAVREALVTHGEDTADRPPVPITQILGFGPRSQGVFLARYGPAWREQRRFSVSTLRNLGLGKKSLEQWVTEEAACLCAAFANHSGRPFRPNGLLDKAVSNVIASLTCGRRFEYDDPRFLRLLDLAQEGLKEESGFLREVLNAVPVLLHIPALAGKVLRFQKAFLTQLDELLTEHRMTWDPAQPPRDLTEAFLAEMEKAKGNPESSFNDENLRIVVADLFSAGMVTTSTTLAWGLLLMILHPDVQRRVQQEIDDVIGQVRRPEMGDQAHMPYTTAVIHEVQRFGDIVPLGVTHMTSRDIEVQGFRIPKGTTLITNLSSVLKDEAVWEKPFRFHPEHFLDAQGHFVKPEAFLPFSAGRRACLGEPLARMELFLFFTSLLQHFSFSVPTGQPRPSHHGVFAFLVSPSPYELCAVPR
Sequence of CYP2C9 (P11712 whole entry, canonical isoform): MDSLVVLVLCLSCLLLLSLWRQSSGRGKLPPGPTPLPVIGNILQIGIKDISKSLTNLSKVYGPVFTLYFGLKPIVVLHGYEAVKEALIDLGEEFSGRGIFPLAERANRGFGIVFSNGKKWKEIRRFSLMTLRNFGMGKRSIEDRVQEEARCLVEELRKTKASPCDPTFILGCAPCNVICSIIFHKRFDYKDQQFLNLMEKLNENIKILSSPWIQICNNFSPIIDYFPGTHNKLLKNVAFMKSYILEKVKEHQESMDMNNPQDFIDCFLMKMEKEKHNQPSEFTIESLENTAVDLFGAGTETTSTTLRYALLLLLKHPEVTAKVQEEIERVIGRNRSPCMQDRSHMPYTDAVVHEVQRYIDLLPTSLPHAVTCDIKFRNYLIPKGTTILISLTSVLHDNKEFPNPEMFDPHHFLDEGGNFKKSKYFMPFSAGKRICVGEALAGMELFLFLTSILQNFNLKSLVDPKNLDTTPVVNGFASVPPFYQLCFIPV
Experimental for CYP1A2: The following substrates were used; CYP1A phenacetin, CYP2B36 bupropion, CYP2C8 paclitaxel and amodiaquine, CYP2C9 diclofenac, CYP2C19 omeprazole, CYP2D6 dextromethorphan, CYP3A midazolam and testosterone.
At the end of the incubation, the formation of metabolite was monitored by HPLC-MS/MS as the peak area response.

In the case of `CC(C)Cc1ccc(S(=O)(=O)Nc2ncccn2)c(-c2ccc(Cn3ccnc3C(C)(C)C)c(F)c2)c1` [Example 7, 4′-((2-(tert-Butyl)-1H-imidazol-1-yl)methyl)-3′-fluoro-5-isobutyl-N-(pyrimidin-2-yl)-[1,1′-biphenyl]-2-sulfonamide], the half-life at 1 μM in [1] (setting [4]) was 54 min; in data set [1] (setting [5]), over 60 min. For the same compound, in data set [2], the Ki is 1.27 nM. In addition, the half-maximal inhibitory concentration (IC50) in data set [2] came out at 2.54 nM; in data set [3], 15000 nM. In addition, the inhibition at 10 µM at CYP1A2 is 45.9%; at CYP2B6, 38.9%; on CYP2C19 it was 41%; on CYP2C8 it was 78%; on CYP2D6, 15%; in the data set with CYP3A4&5, 3.7%. In addition, the inhibition at 10 µM at CYP2C9 was 41.3%; on CYP3A4 it was -12.5%.
With `CC(C)Cc1ccc(S(=O)(=O)Nc2ncc(F)cn2)c(-c2ccc(Cn3ccnc3C(C)(C)C)c(F)c2)c1` [Example 9, 4′-((2-(tert-Butyl)-1H-imidazol-1-yl)methyl)-3′-fluoro-N-(5-fluoropyrimidin-2-yl)-5-isobutyl-[1,1′-biphenyl]-2-sulfonamide], the half-life at 1 μM in [1] (setting [4]) and in data set [1] (setting [5]) was over 60 min in each case. The Ki in data set [2] turned out to be 2.05 nM. Further, the IC50 in data set [2] came out at 4.11 nM; in [3] it was 5200 nM. The inhibition at 10 µM is 48.6% on CYP1A2; 30.4% at CYP2B6; 35.8% on CYP2C19; 91.6% on CYP2C8; 16.4% at CYP2D6; -14.9% with CYP3A4&5. The results for the inhibition at 10 µM at CYP2C9 and on CYP3A4 were 73.1% and 7.7%, respectively.
As for `CC(C)Cc1ccc(S(=O)(=O)Nc2ncc(C#N)cn2)c(-c2ccc(Cn3ccnc3C(C)(C)C)c(F)c2)c1` [Example 12, 4′-((2-(tert-Butyl)-1H-imidazol-1-yl)methyl)-N-(5-cyanopyrimidin-2-yl)-3′-fluoro-5-isobutyl-[1,1′-biphenyl]-2-sulfonamide], the figures for the half-life at 1 μM in data set [1] (setting [4]) and in data set [1] (setting [5]) were 58 min and over 60 min, respectively. Besides, in [2], the Ki stood at 2.08 nM. In addition, the values for the IC50 in [2] and in data set [3] were 4.17 nM and 1700 nM, respectively. Further, the inhibition at 10 µM is 16.7% on CYP1A2; 35.8% on CYP2B6; 48.9% on CYP2C19; 89.6% on CYP2C8; 18.4% on CYP2D6; -41.8% in the data set with CYP3A4&5. Moreover, the figures for the inhibition at 10 µM on CYP2C9 and at CYP3A4 were 82.3% and 14.6%, respectively.
`Cc1cnc(NS(=O)(=O)c2ccc(CC(C)C)cc2-c2ccc(Cn3ccnc3C(C)(C)C)cc2)nc1` [Example 20, 4′-((2-(tert-Butyl)-1H-imidazol-1-yl)methyl)-5-isobutyl-N-(5-methylpyrimidin-2-yl)-[1,1′-biphenyl]-2-sulfonamide]: the half-life at 1 μM in [1] (setting [4]) was 40 min; in data set [1] (setting [5]), over 60 min. In addition, the Ki in data set [2] worked out at 3.75 nM. For the same compound, the IC50 in [2] stood at 7.5 nM; in [3], 22700 nM. In addition, the inhibition at 10 µM was found to be 10.7% at CYP1A2; 12.5% on CYP2B6; 48% on CYP2C19; 40.9% on CYP2C8; 20.1% at CYP2D6; 28.1% in the data set with CYP3A4&5. Also, the results for the inhibition at 10 µM on CYP2C9 and at CYP3A4 were 69% and 47.5%, respectively.
`COc1ncncc1NS(=O)(=O)c1ccc(CC(C)C)cc1-c1ccc(Cn2ccnc2C(C)(C)C)c(F)c1` [Example 22, 4′-((2-(tert-Butyl)-1H-imidazol-1-yl)methyl)-3′-fluoro-5-isobutyl-N-(4-methoxy-pyrimidin-5-yl)-[1,1′-biphenyl]-2-sulfonamide]: the half-life at 1 μM in [1] (setting [4]) was 8 min; in data set [1] (setting [5]), over 60 min. In data set [2], the Ki amounted to 71 nM. Besides, the results for the IC50 in [2] and in data set [3] were 142 nM and 58700 nM, respectively. Also, the inhibition at 10 µM at CYP1A2 was -1.1%; on CYP2B6, 20.5%; on CYP2C19 it was 85.7%; at CYP2C8, 58.1%; at CYP2D6, 4%; with CYP3A4&5, 97%. Besides, the inhibition at 10 µM came out at 94.7% at CYP2C9 and 98.2% on CYP3A4.
As for `Cc1nc(NS(=O)(=O)c2ccc(CC(C)C)cc2-c2ccc(Cn3ccnc3C(C)(C)C)c(F)c2)oc1C` [Example 24, 4′-((2-(tert-Butyl)-1H-imidazol-1-yl)methyl)-N-(4,5-dimethyloxazol-2-yl)-3′-fluoro-5-isobutyl-[1,1′-biphenyl]-2-sulfonamide], the half-life at 1 μM in [1] (setting [4]) was 33 min; in data set [1] (setting [5]), over 60 min. In addition, in data set [2], the Ki is 0.72 nM. The IC50 in data set [2] is 1.45 nM; in data set [3], 1100 nM. The inhibition at 10 µM on CYP1A2 was -19.4%; at CYP2B6, 26.9%; on CYP2C19, 57%; at CYP2C8 it was 59.6%; at CYP2D6 it was 1.1%; with CYP3A4&5, 47.5%. Also, the inhibition at 10 µM is 52.7% at CYP2C9 and 36% at CYP3A4.
